# Where no end group is shown, it is not given here.
# Columns and labels:
# [1] = tested on: macrophages (PMA-induced U937 cells); experiment: flow cytometry macrophage apoptosis test (AV-FITC/PI); format: cell-based, Human; details: 24 h; Adalimumab 50 μg/mL, mPEG-SC20k-HM-3 13.5 μmol/L
# Experimental: Human U937 cells are added to a 6-well plate (1.5×10^5 cells/mL), PMA (25 ng/mL) is added to perform induction for 48 h for differentiation into macrophages, and the macrophages are added to the positive drug Adalimumab group (50 μg/mL), the HM-3 control group (13.5 μmol/L), the mPEG-SC20k-HM-3 group (13.5 μmol/L), isovolumetric PBS is added to the blank group and the model group, and the cells are incubated in a CO2 incubator at 37° C. for 24 h. For the H2O2 group (3%, 20 μL/mL volume) test, hydrogen peroxide is added in the first half hour to normal cells for apoptosis induction control.
# 1000 g of solution is centrifuged for 5 min, and supernatant is discarded. Washing is performed once with PBS.
# The apoptosis is tested on the flow cytometer according to the instructions of the AV-FITC/PI apoptosis kit.
# [2] = tested on: macrophages (PMA-induced U937 cells); experiment: Western blot of protein expression in macrophages (PMA-induced U937 cells); format: cell-based, human
# Experimental: 3.1 U937 cells are added to a 6-well plate (1.5×10^5 cells/mL), PMA (25 ng/mL) is used for induction for 48 h, and the cells adhere and differentiate into macrophages. Positive drug Adalimumab (25 μg/mL, 50 μg/mL, 100 μg/mL, 200 μg/mL, 400 μg/mL), Avastin (25 μg/mL, 50 μg/mL) are added, the final concentrations of mPEG-SC20k-HM-3 are 2.25, 4.5, 9.0, 13.5, 18.0, 36 μmol/L, and isovolumetric PBS is added to the blank group and the model group. The cells are incubated in a CO2 incubator at 37° C. for 24 or 48 h. Rat synovial cells are induced with LPS for 24 h and then mPEG-SC20k-HM-3 is administrated to final concentrations of 2.25, 4.5, 9.0, 13.5, 18.0 μmol/L, and the cells are incubated in a CO2 incubator at 37° C. for 48 h.
# 3.3 A protein extract solution is added at 20 μL/1×10^5 cells, and the cells are pipetted and dispersed, and stand at 4° C. for 30 min to lyse the cells.
# 3.4 1/4 volume of 5×protein loading buffer is added, and boiling water bath is performed for 5-10 min.
# 3.5 20 μL of protein sample is taken and 10% SDS-PAGE electrophoresis is performed.
# 3.6 The protein on the gel is transferred to the PVDF membrane by using a wetting transfer method with a constant current of 100 mA for 1-2.5 h.
# 3.7 The PVDF membrane is blocked with a blocking solution at room temperature for 2 h.
# 3.8 The membrane is washed for 3 times with PBST, 5 min each time. A primary antibody is added and the membrane stands at 4° C. overnight or is incubated at 37° C. for 2 h.
# 3.9 The membrane is washed for 3 times with PBST, 5 min each time. A secondary antibody is added and the membrane is incubated at room temperature for more than 2 h.
# 3.10 The membrane is exposed in a gel imager using an ECL detection kit.
# [3] = tested on: IL-6; experiment: immunohistochemistry of IL-6 in spleen and thymus, CIA transgenic TNF-luc mice; format: in vivo, BALB/c transgenic TNF-luc mice; details: Adalimumab 8 mg/kg, mPEG-SC20k-HM-3 20 mg/kg
# Experimental: Determining criteria: The experimental results are determined based on the proportion of positive cells in all tissue cells and the staining intensity of positive cells: A: scoring is performed based on the number of chromogenic cells, 1 point is given when the proportion of the number of positive cells is less than ⅓, 2 points are given when the proportion of the number of positive cells is ⅓-⅔, and 3 points are given when the proportion of the number of positive cells is greater than or equal to ⅔. B: Based on the color depth of cells, 0 point is given when no cells have positive reaction, 1 point is given when cells are light yellow, 2 points are given when the cells are light brown, and 3 points are given when the cells are dark brown. Point product=A×B. The result is expressed in point product.
# [4] = tested on: IL-6; experiment: immunohistochemistry of IL-6 in spleen and thymus, AIA transgenic TNF-luc mice; format: in vivo, BALB/c transgenic TNF-luc mice; details: Adalimumab 8 mg/kg, mPEG-SC20k-HM-3 20 mg/kg
# Experimental: Changes of expression of TNF-α and IL-6 are analyzed by HE staining and immunohistochemistry in the ankle joint, spleen and thymus of the mice. Observation and photographing are performed under the FOVs of ×200 and ×400 times respectively, 5 FOVs are taken randomly for each picture, and data statistics is performed.
# [5] = with the increase of the dosage
substance,measurement,setting,value
Adalimumab [reference compound],rate of early apoptosis of macrophages,[1],14.2%
same,rate of late apoptosis of macrophages,[1],15.2%
same,effect on integrin pathway angiogenesis,[2],no inhibitory effect
same,immunohistochemical score of IL-6 in spleen,[3],0.008±0.003
same,immunohistochemical score of IL-6 in thymus,[3],0.030±0.031
same,immunohistochemical score of IL-6 in spleen,[4],0.013±0.010
same,immunohistochemical score of IL-6 in thymus,[4],0.039±0.041
"mPEG-SC20k-Ile-Val-Arg-Arg-Ala-Asp-Arg-Ala-Ala-Val-Pro-Gly-Gly-Gly-Gly-Arg-Gly-Asp ({mPEG‑SC 20k}-IVRRADRAAVPGGGGRGD) [polypeptide III, No. 3]",rate of early apoptosis of macrophages,[1],28.0%
same,rate of late apoptosis of macrophages,[1],14.7%
same,"dose with the best inhibitory effect on the expression of Integrin α5, Integrin β1, VEGFR2, HIF-1β, IL-6 proteins",[2],13.5 µM
same,dose with the best inhibitory effect on the expression of TNFR1 protein,[2],18 µM
same,"dose with the best inhibitory effect on the expression of TNFR2, NF-κB and TNF-α proteins",[2],4.5 µM
same,expression of HIF-1β and IL-6 protein in macrophages,[2]; [5],down-regulated
same,expression of NF-κB protein factors in nuclei,[2]; [5],down-regulated
same,expression of TNFR1 and TNFR2 protein factors in macrophages,[2]; [5],down-regulated
same,"expression of integrin α5, Integrin β1 and VEGFR2 proteins in macrophages",[2]; [5],down-regulated
same,immunohistochemical score of IL-6 in spleen,[3],0.017±0.009
same,immunohistochemical score of IL-6 in thymus,[3],0.040±0.021
same,immunohistochemical score of IL-6 in spleen,[4],0.006±0.002
same,immunohistochemical score of IL-6 in thymus,[4],0.068±0.033
